Values quoted from earlier work as cited in patent US10342765B2, “Therapeutic compositions comprising monoterpenes” (priority 2009, dated 2019).
“Also recorded” adds a separate entry of the source.

Legend:
malignant gliomas = settings: patients with malignant gliomas; nasal inhalation
[1] = tested on: systemic malignancies including breast, lung, pancreatic, melanomas
[2] = nasal inhalation; nasal inhaler four times daily

## C=C(C)[C@@H]1CC=C(CO)CC1 [POH, perillyl alcohol]
Malignant gliomas
  tumor size (radiographic): radiographic reduction in tumor size
[1]
  effectiveness against systemic malignancies: effective
[2]
  tolerability in patients: safely tolerated; also recorded: well tolerated, with minimal side effects
